From patent publication US9332770B2, “Anti-listerial mixed culture and method for producing cheese” (CSK Food Enrichment B.V., priority 2011, dated 2016)

How the values were obtained:
[1] = system: Lactobacillus plantarum LMG P-26358; assay: growth profile in MRS broth substituted with various sugars; format: cell-based; conditions: for GT (generation time) / μmax (specific growth rate): 2% sugar in the MRS broth; for ability of Lb. plantarum LMG P-26358 to grow on the sugar: sugar acidification profiles
L. innocua = assay: frequency of bacteriocin resistance development; format: cell-based, Listeria innocua; conditions: 2560 au/ml bacteriocin (purified preparation) and/or 320 au/ml nisin
Procedure: The frequency of development of resistance in L. innocua to 2560 au/ml of the bacteriocin produced by Lb. plantarum LMG P-26358 (purified preparation) was calculated at 1.13×10^−3. […] The resistant colonies were picked off and tested for their sensitivity to the bacteriocin produced by Lb. plantarum LMG P-26358.

Row | Molecule | GT (generation time) [1] | μmax (specific growth rate) [1] | ability of Lb. plantarum LMG P-26358 to grow on the sugar [1] | frequency of development of resistance in L. innocua (L. innocua)
1 | O=C[C@H](O)[C@@H](O)[C@H](O[C@@H]1O[C@H](CO)[C@@H](O)[C@H](O)[C@H]1O)[C@H](O)CO [Cellobiose] | 90 min | 0.2018 OD600 · hour^−1 | capable of growing | –
2 | O=C(CO)[C@@H](O)[C@H](O)[C@H](O)CO [Fructose] | 104 min | 0.174 OD600 · hour^−1 | capable of growing | –
3 | O=C[C@H](O)[C@@H](O)[C@@H](O)[C@H](O)CO [Galactose] | 123 min | 0.1473 OD600 · hour^−1 | capable of growing | –
4 | OC[C@H]1O[C@@H](O[C@H]2[C@H](O)[C@@H](O)C(O)O[C@@H]2CO)[C@H](O)[C@@H](O)[C@H]1O (stereo partly shown) [Lactose] | 100 min | 0.1815 OD600 · hour^−1 | can grow efficiently | –
5 | OC[C@H]1O[C@H](O[C@H]2[C@H](O)[C@@H](O)[C@H](O)O[C@@H]2CO)[C@H](O)[C@@H](O)[C@@H]1O [Maltose] | 79 min | 0.2277 OD600 · hour^−1 | capable of growing | –
6 | OC[C@H]1O[C@H](OC[C@H]2O[C@H](O[C@]3(CO)O[C@H](CO)[C@@H](O)[C@@H]3O)[C@H](O)[C@@H](O)[C@@H]2O)[C@H](O)[C@@H](O)[C@H]1O [Raffinose] | 246 min | 0.0734 OD600 · hour^−1 | unable to metabolise | –
7 | OC[C@H]1O[C@@](CO)(O[C@H]2O[C@H](CO)[C@@H](O)[C@H](O)[C@H]2O)[C@@H](O)[C@@H]1O [Sucrose] | 86 min | 0.2088 OD600 · hour^−1 | capable of growing | –
8 | OC[C@H]1O[C@H](O[C@H]2O[C@H](CO)[C@@H](O)[C@H](O)[C@H]2O)[C@H](O)[C@@H](O)[C@@H]1O [Trehalose] | 92 min | 0.1963 OD600 · hour^−1 | capable of growing | –
9 | nisin | – | – | – | 2.16×10^−2
